Data from ChEMBL document CHEMBL1949518, “Synthesis and biological evaluation of some new 2-pyrazolines bearing benzene sulfonamide moiety as potential anti-inflammatory and anti-cancer agents” (Eur J Med Chem, 2011).

Columns and labels:
Assay type in all cases: functional
[1] = system: HL-60(TB); test: Antiproliferative activity against human HL-60(TB) cells assessed as cell growth at 10^-5 M after 48 hrs by SRB assay relative to control; settings: HL-60, 48 h, read-out: Activity
[2] = system: MOLT-4; test: Antiproliferative activity against human MOLT4 cells assessed as cell growth at 10^-5 M after 48 hrs by SRB assay relative to control; settings: MOLT-4, 48 h, read-out: Activity
[3] = system: A549; test: Antiproliferative activity against human A549 cells assessed as cell growth at 10^-5 M after 48 hrs by SRB assay relative to control; settings: A549, 48 h, read-out: Activity
[4] = system: EKVX; test: Antiproliferative activity against human EKVX cells assessed as cell growth at 10^-5 M after 48 hrs by SRB assay relative to control; settings: read-out: Activity
[5] = system: HOP-62; test: Antiproliferative activity against human HOP62 cells assessed as cell growth at 10^-5 M after 48 hrs by SRB assay relative to control; settings: HOP-62, 48 h, read-out: Activity
[6] = system: HOP-92; test: Antiproliferative activity against human HOP92 cells assessed as cell growth at 10^-5 M after 48 hrs by SRB assay relative to control; settings: HOP-92, 48 h, read-out: Activity
[7] = system: NCI-H226; test: Antiproliferative activity against human NCI-H226 cells assessed as cell growth at 10^-5 M after 48 hrs by SRB assay relative to control; settings: NCI-H226, 48 h, read-out: Activity
[8] = system: NCI-H322M; test: Antiproliferative activity against human NCI-H322M cells assessed as cell growth at 10^-5 M after 48 hrs by SRB assay relative to control; settings: read-out: Activity
[9] = system: NCI-H460; test: Antiproliferative activity against human NCI-H460 cells assessed as cell growth at 10^-5 M after 48 hrs by SRB assay relative to control; settings: NCI-H460, 48 h, read-out: Activity
[10] = system: NCI-H522; test: Antiproliferative activity against human NCI-H522 cells assessed as cell growth at 10^-5 M after 48 hrs by SRB assay relative to control; settings: NCI-H522, 48 h, read-out: Activity
[11] = system: COLO 205; test: Antiproliferative activity against human COLO205 cells assessed as cell growth at 10^-5 M after 48 hrs by SRB assay relative to control; settings: COLO 205, 48 h, read-out: Activity
[12] = system: HCT-116; test: Antiproliferative activity against human HCT116 cells assessed as cell growth at 10^-5 M after 48 hrs by SRB assay relative to control; settings: HCT-116, 48 h, read-out: Activity
[13] = system: KM12; test: Antiproliferative activity against human KM12 cells assessed as cell growth at 10^-5 M after 48 hrs by SRB assay relative to control; settings: KM12, 48 h, read-out: Activity
[14] = system: SF-295; test: Antiproliferative activity against human SF295 cells assessed as cell growth at 10^-5 M after 48 hrs by SRB assay relative to control; settings: SF-295, 48 h, read-out: Activity
[15] = system: SNB-19; test: Antiproliferative activity against human SNB19 cells assessed as cell growth at 10^-5 M after 48 hrs by SRB assay relative to control; settings: SNB-19, 48 h, read-out: Activity
[16] = system: U-251; test: Antiproliferative activity against human U251 cells assessed as cell growth at 10^-5 M after 48 hrs by SRB assay relative to control; settings: U-251, 48 h, read-out: Activity
[17] = system: IGROV-1; test: Antiproliferative activity against human IGROV1 cells assessed as cell growth at 10^-5 M after 48 hrs by SRB assay relative to control; settings: IGROV-1, 48 h, read-out: Activity
[18] = system: OVCAR-3; test: Antiproliferative activity against human OVCAR3 cells assessed as cell growth at 10^-5 M after 48 hrs by SRB assay relative to control; settings: OVCAR-3, 48 h, read-out: Activity
[19] = system: OVCAR-5; test: Antiproliferative activity against human OVCAR5 cells assessed as cell growth at 10^-5 M after 48 hrs by SRB assay relative to control; settings: OVCAR-5, 48 h, read-out: Activity
[20] = system: OVCAR-8; test: Antiproliferative activity against human OVCAR8 cells assessed as cell growth at 10^-5 M after 48 hrs by SRB assay relative to control; settings: OVCAR-8, 48 h, read-out: Activity
[21] = system: SK-OV-3; test: Antiproliferative activity against human SKOV3 cells assessed as cell growth at 10^-5 M after 48 hrs by SRB assay relative to control; settings: SK-OV-3, 48 h, read-out: Activity
[22] = system: ACHN; test: Antiproliferative activity against human ACHN cells assessed as cell growth at 10^-5 M after 48 hrs by SRB assay relative to control; settings: read-out: Activity
[23] = system: RXF 393; test: Antiproliferative activity against human RXF393 cells assessed as cell growth at 10^-5 M after 48 hrs by SRB assay relative to control; settings: RXF 393, 48 h, read-out: Activity
[24] = system: TK-10; test: Antiproliferative activity against human TK10 cells assessed as cell growth at 10^-5 M after 48 hrs by SRB assay relative to control; settings: TK-10, 48 h, read-out: Activity
[25] = system: PC-3; test: Antiproliferative activity against human PC3 cells assessed as cell growth at 10^-5 M after 48 hrs by SRB assay relative to control; settings: PC-3, 48 h, read-out: Activity
[26] = system: BT-549; test: Antiproliferative activity against human BT549 cells assessed as cell growth at 10^-5 M after 48 hrs by SRB assay relative to control; settings: BT-549, 48 h, read-out: Activity
[27] = system: T47D; test: Antiproliferative activity against human T47D cells assessed as cell growth at 10^-5 M after 48 hrs by SRB assay relative to control; settings: read-out: Activity
[28] = system: MDA-MB-468; test: Antiproliferative activity against human MDA-MB-468 cells assessed as cell growth at 10^-5 M after 48 hrs by SRB assay relative to control; settings: MDA-MB-468, 48 h, read-out: Activity
[29] = system: M14; test: Antiproliferative activity against human M14 cells assessed as cell growth at 10^-5 M after 48 hrs by SRB assay relative to control; settings: M14, 48 h, read-out: Activity
[30] = system: MDA-MB-435; test: Antiproliferative activity against human MDA-MB-435 cells assessed as cell growth at 10^-5 M after 48 hrs by SRB assay relative to control; settings: MDA-MB-435, 48 h, read-out: Activity
[31] = system: SK-MEL-5; test: Antiproliferative activity against human SK-MEL-5 cells assessed as cell growth at 10^-5 M after 48 hrs by SRB assay relative to control; settings: SK-MEL-5, 48 h, read-out: Activity
[32] = system: UACC-257; test: Antiproliferative activity against human UACC257 cells assessed as cell growth at 10^-5 M after 48 hrs by SRB assay relative to control; settings: UACC-257, 48 h, read-out: Activity
[33] = system: UACC-62; test: Antiproliferative activity against human UACC62 cells assessed as cell growth at 10^-5 M after 48 hrs by SRB assay relative to control; settings: UACC-62, 48 h, read-out: Activity

Row | Structure (SMILES) | growth at 10 µM [1] | growth at 10 µM [2] | growth at 10 µM [3] | growth at 10 µM [4] | growth at 10 µM [5] | growth at 10 µM [6] | growth at 10 µM [7] | growth at 10 µM [8] | growth at 10 µM [9] | growth at 10 µM [10] | growth at 10 µM [11] | growth at 10 µM [12] | growth at 10 µM [13] | growth at 10 µM [14] | growth at 10 µM [15] | growth at 10 µM [16] | growth at 10 µM [17] | growth at 10 µM [18] | growth at 10 µM [19] | growth at 10 µM [20] | further results
1 | COc1ccc(C2CC(c3c(O)cc(C)c(Cl)c3C)=NN2c2ccc(S(N)(=O)=O)cc2)cc1 (centres undefined) | 69.1% | 36.5% | 56% | 70.5% | 78.1% | 43.3% | 98.7% | 85.1% | 62% | 71.5% | 102% | 75.5% | 75% | 152% | 92.7% | 91.3% | 71.9% | 102% | 86.6% | 101% | growth at 10 µM [21]: 101%; growth at 10 µM [22]: 96.7%; growth at 10 µM [23]: 111%; growth at 10 µM [24]: 104%; growth at 10 µM [25]: 56.2%; growth at 10 µM [26]: 119%; growth at 10 µM [27]: 62.1%; growth at 10 µM [28]: 91.5%; growth at 10 µM [29]: 77.8%; growth at 10 µM [30]: 79.3%; growth at 10 µM [31]: 94.4%; growth at 10 µM [32]: 103%; growth at 10 µM [33]: 74%
2 | Cc1cc(O)c(C2=NN(c3ccc(S(N)(=O)=O)cc3)C(c3ccc(Cl)cc3)C2)c(C)c1Cl (centres undefined) | 24.1% | 27.3% | 40.8% | 51.1% | 107% | 45.5% | 88.8% | 97.6% | 47.1% | 39.8% | 76.2% | 41.1% | 62.4% | 6.34% | 107% | 78.3% | 34.1% | 80.3% | 96.8% | 75.2% | growth at 10 µM [21]: 106%; growth at 10 µM [22]: 88.6%; growth at 10 µM [23]: 93.4%; growth at 10 µM [24]: 113%; growth at 10 µM [25]: 13.6%; growth at 10 µM [26]: 95.7%; growth at 10 µM [27]: 37%; growth at 10 µM [28]: 91.1%; growth at 10 µM [29]: 89.3%; growth at 10 µM [30]: 69.3%; growth at 10 µM [31]: 79.6%; growth at 10 µM [32]: 97.6%; growth at 10 µM [33]: 64.8%
3 | Cc1cc(O)c(C2=NN(c3ccc(S(N)(=O)=O)cc3)C(c3ccc(N(C)C)cc3)C2)c(C)c1Cl (centres undefined) | 18.4% | 14.3% | 33.2% | 49.7% | 84.3% | 21.3% | 106% | 75.3% | 3.35% | 57.7% | 30.8% | 55.1% | 29.1% | 20.4% | 89.8% | 70% | 20.6% | 68% | 95.2% | 5.73% | growth at 10 µM [21]: 81.6%; growth at 10 µM [22]: 58.7%; growth at 10 µM [23]: 48.1%; growth at 10 µM [24]: 80%; growth at 10 µM [25]: 12.1%; growth at 10 µM [26]: 112%; growth at 10 µM [27]: 46.9%; growth at 10 µM [28]: 43.7%; growth at 10 µM [29]: 39.1%; growth at 10 µM [30]: 38.6%; growth at 10 µM [31]: 81.7%; growth at 10 µM [32]: 74.1%; growth at 10 µM [33]: 53%
